Source: EP0183129A1, “Quinolonecarboxylic acid derivatives” (KYORIN PHARMACEUTICAL CO., LTD., priority 1984, dated 1986)
Values after ≈ are worked out from the molar mass of the structure shown.

Legend:
P. mirabilis IID 994 = experiment: In vitro antibacterial activity, MIC (standard strain); assay type: cell-based; details: Proteus mirabilis, IID994; P. mirabilis IID 994; 10^6 cells/ml; standard strain; read-out: MIC
P. aeruginosa IFO 12689 = experiment: as above; assay type: cell-based, Pseudomonas aeruginosa; details: Pseudomonas aeruginosa, IFO12689; P. aeruginosa IFO 12689; 10^6 cells/ml; standard strain; read-out: MIC
S. faecalis 402 = experiment: In vitro antibacterial activity, MIC (clinical isolates); assay type: cell-based; details: Enterococcus faecalis; S. faecalis 402; 10^6 cells/ml; clinical isolate; read-out: MIC
[1] = tested on: Enterobacter cloacae IID 977; experiment: In vitro antibacterial activity, MIC (standard strain); assay type: cell-based; details: Enterobacter cloacae, IID977, Enterobacter cloacae IID 977; 10^6 cells/ml; standard strain; read-out: MIC
[2] = tested on: Klebsiella pneumoniae KY(GN)6445; experiment: as above; assay type: cell-based; details: Klebsiella pneumoniae KY(GN)6445; 10^6 cells/ml; standard strain; read-out: MIC
B. fragilis 25285 = experiment: as above; assay type: cell-based, Bacteroides fragilis; details: Bacteroides fragilis, 25285, B. fragilis 25285; 10^6 cells/ml; standard strain; read-out: MIC
S. pyogenes 4372 = experiment: In vitro antibacterial activity, MIC (clinical isolates); assay type: cell-based; details: Streptococcus pyogenes; S. pyogenes 4372; 10^6 cells/ml; clinical isolate; read-out: MIC
S. pneumoniae IID 552 = experiment: In vitro antibacterial activity, MIC (standard strain); assay type: cell-based; details: Streptococcus pneumoniae, IID552; S. pneumoniae IID 552; 10^6 cells/ml; standard strain; read-out: MIC
[3] = tested on: Streptococcus pyogenes S-8; experiment: as above; assay type: cell-based; details: S8; Streptococcus pyogenes S-8; 10^6 cells/ml; standard strain; read-out: MIC
S. pneumoniae 3227 = experiment: In vitro antibacterial activity, MIC (clinical isolates); assay type: cell-based; details: Streptococcus pneumoniae; S. pneumoniae 3227; 10^6 cells/ml; clinical isolate; read-out: MIC
S. faecalis 214 = experiment: as above; assay type: cell-based; details: Enterococcus faecalis; S. faecalis 214; 10^6 cells/ml; clinical isolate; read-out: MIC
S. agalactiae 4394 = experiment: as above; assay type: cell-based; details: Streptococcus agalactiae; S. agalactiae 4394; 10^6 cells/ml; clinical isolate; read-out: MIC
S. agalactiae 4368 = experiment: as above; assay type: cell-based; details: Streptococcus agalactiae; S. agalactiae 4368; 10^6 cells/ml; clinical isolate; read-out: MIC
[4] = tested on: Staphylococcus aureus 209 P; experiment: In vitro antibacterial activity, MIC (standard strain); assay type: cell-based; details: Staphylococcus aureus 209 P; 10^6 cells/ml; standard strain; read-out: MIC
[5] = tested on: Escherichia coli NIHJ JC-2; experiment: as above; assay type: cell-based; details: Escherichia coli, NIHJJC2, Escherichia coli NIHJ JC-2; 10^6 cells/ml; standard strain; read-out: MIC
[6] = tested on: Proteus vulgaris IFO 3167; experiment: as above; assay type: cell-based; details: IFO3167; Proteus vulgaris IFO 3167; 10^6 cells/ml; standard strain; read-out: MIC
S. pneumoniae 2950 = experiment: In vitro antibacterial activity, MIC (clinical isolates); assay type: cell-based; details: Streptococcus pneumoniae; S. pneumoniae 2950; 10^6 cells/ml; clinical isolate; read-out: MIC
S. faecalis 401 = experiment: as above; assay type: cell-based; details: Enterococcus faecalis; S. faecalis 401; 10^6 cells/ml; clinical isolate; read-out: MIC
S. pyogenes IID 692 = experiment: In vitro antibacterial activity, MIC (standard strain); assay type: cell-based; details: Streptococcus pyogenes, IID692; S. pyogenes IID 692; 10^6 cells/ml; standard strain; read-out: MIC
[7] = tested on: S. aureus IID 670 (Terajima); experiment: as above; assay type: cell-based, Staphylococcus aureus; details: Staphylococcus aureus, IID670, S. aureus IID 670 (Terajima); 10^6 cells/ml; standard strain; read-out: MIC
[8] = tested on: Clostridium perfringens KYA 13123; experiment: microbe, parasite or virus in culture; assay type: cell-based; details: KYA13123
S. agalactiae 4468 = experiment: In vitro antibacterial activity, MIC (clinical isolates); assay type: cell-based; details: Streptococcus agalactiae; S. agalactiae 4468; 10^6 cells/ml; clinical isolate; read-out: MIC
[9] = tested on: Morganella morganii IID 602; experiment: In vitro antibacterial activity, MIC (standard strain); assay type: cell-based; details: IID602; Morganella morganii IID 602; 10^6 cells/ml; standard strain; read-out: MIC
[10] = tested on: Serratia marcescens IID 618; experiment: as above; assay type: cell-based; details: Serratia marcescens, IID618, Serratia marcescens IID 618; 10^6 cells/ml; standard strain; read-out: MIC
M. pneumoniae Mac. = experiment: In vitro antibacterial activity against Mycoplasma, MIC; assay type: cell-based; details: Mycoplasmoides pneumoniae, 120 h; M. pneumoniae Mac.; no visible growth after incubation for 5 days; read-out: MIC
From the text: Experiment-3 In vitro antibacterial activity against Mycoplasma

S. pneumoniae S-4288 = experiment: In vivo antibacterial activity against systemic infection in mice; set-up: species or system mice (ICR-S); details: Streptococcus pneumoniae, S4288; mice (ICR-S); oral, an hour after intraperitoneal infection; challenge dose 7.5 x 10^4 ~ 4.8 x 10^6 cfu/mouse; read-out: ED50 S. pneumoniae S-4288
Method: (§1) Experiment-2 In vivo antibacterial activity against systemic infection in mice (ICR-S)
(§2) The infections were produced by intraperitoneal injection of a suspension of the bacterial culture corresponding to the germ studied. The products were administered orally at an hour after the infection.

S. aureus Smith = experiment: as above; set-up: species or system mice (ICR-S); details: Staphylococcus aureus, po, mice (ICR-S), an hour after intraperitoneal infection, challenge dose 6.0 x 10^5 cfu/mouse, read-out: ED50 S. aureus Smith
Method: as §1, §2

Compound	MIC (P. mirabilis IID 994)	MIC (P. aeruginosa IFO 12689)	MIC (S. faecalis 402)	MIC [1]	MIC [2]	MIC (B. fragilis 25285)	MIC (S. pyogenes 4372)	MIC (S. pneumoniae IID 552)	MIC [3]	MIC (S. pneumoniae 3227)	MIC (S. faecalis 214)	MIC (S. agalactiae 4394)	MIC (S. agalactiae 4368)	MIC [4]	MIC [5]	MIC [6]	MIC (S. pneumoniae 2950)	MIC (S. faecalis 401)	MIC (S. pyogenes IID 692)	MIC [7]	further results
CNCC1CCN(c2c(F)cc3c(=O)c(C(=O)O)cn(C4CC4)c3c2Br)C1 (stereo not drawn) [Example 16, 8-Bromo-1-cyclopropyl-6-fluoro-1,4-dihydro-7-(3-methylaminomethyl-l-pyrrolidinyl)-4-oxo-3-quinolinecarboxylic acid]	0.025 µg/mL (≈ 0.057 µM)	1.56 µg/mL (≈ 3.56 µM)	0.1 µg/mL (≈ 0.228 µM)	0.1 µg/mL (≈ 0.228 µM)	0.05 µg/mL (≈ 0.114 µM)	0.1 µg/mL (≈ 0.228 µM)	0.05 µg/mL (≈ 0.114 µM)	0.05 µg/mL (≈ 0.114 µM)	0.05 µg/mL (≈ 0.114 µM)	0.05 µg/mL (≈ 0.114 µM)	0.1 µg/mL (≈ 0.228 µM)	0.1 µg/mL (≈ 0.228 µM)	0.05 µg/mL (≈ 0.114 µM)	0.0125 µg/mL (≈ 0.0285 µM)	0.0125 µg/mL (≈ 0.0285 µM)	0.025 µg/mL (≈ 0.057 µM)	0.05 µg/mL (≈ 0.114 µM)	0.1 µg/mL (≈ 0.228 µM)	0.1 µg/mL (≈ 0.228 µM)	0.025 µg/mL (≈ 0.057 µM)	MIC [8]: 0.1 µg/mL (≈ 0.228 µM); MIC (S. agalactiae 4468): 0.05 µg/mL (≈ 0.114 µM); MIC [9]: 0.1 µg/mL (≈ 0.228 µM); MIC [10]: 0.1 µg/mL (≈ 0.228 µM)
CCNCC1CCN(c2c(F)cc3c(=O)c(C(=O)O)cn(C4CC4)c3c2Br)C1 (stereo not drawn) [Example 17, 8-Bromo-l-cyclopropyl-7-(3-ethylaminomethyl-l-pyrrolidinyl)-6-fluoro-1,4-dihydro-4-oxo-3-quinolinecarboxylic acid]	0.025 µg/mL (≈ 0.0553 µM)	3.13 µg/mL (≈ 6.92 µM)	0.1 µg/mL (≈ 0.221 µM)	0.1 µg/mL (≈ 0.221 µM)	0.05 µg/mL (≈ 0.111 µM)	≤ 0.05 µg/mL	0.05 µg/mL (≈ 0.111 µM)	0.05 µg/mL (≈ 0.111 µM)	0.05 µg/mL (≈ 0.111 µM)	0.05 µg/mL (≈ 0.111 µM)	0.1 µg/mL (≈ 0.221 µM)	0.1 µg/mL (≈ 0.221 µM)	0.05 µg/mL (≈ 0.111 µM)	0.0125 µg/mL (≈ 0.0276 µM)	0.0125 µg/mL (≈ 0.0276 µM)	0.025 µg/mL (≈ 0.0553 µM)	0.05 µg/mL (≈ 0.111 µM)	0.1 µg/mL (≈ 0.221 µM)	0.05 µg/mL (≈ 0.111 µM)	0.025 µg/mL (≈ 0.0553 µM)	MIC [8]: 0.1 µg/mL (≈ 0.221 µM); MIC (S. agalactiae 4468): 0.05 µg/mL (≈ 0.111 µM); MIC [9]: 0.2 µg/mL (≈ 0.442 µM); MIC [10]: 0.1 µg/mL (≈ 0.221 µM)
CN(C)CC1CCN(c2c(F)cc3c(=O)c(C(=O)O)cn(C4CC4)c3c2Cl)C1 (stereo not drawn) [Example 20, 8-Chloro-1-cyclopropyl-6-fluoro-1,4-dihydro-7-(3-dimethylaminomethyl-l-pyrrolidinyl)-4-oxo-3-quinolinecarboxylic acid]	0.05 µg/mL (≈ 0.123 µM)	3.13 µg/mL (≈ 7.67 µM)	0.1 µg/mL (≈ 0.245 µM)	0.1 µg/mL (≈ 0.245 µM)	0.05 µg/mL (≈ 0.123 µM)	≤ 0.05 µg/mL	0.1 µg/mL (≈ 0.245 µM)	0.05 µg/mL (≈ 0.123 µM)	0.05 µg/mL (≈ 0.123 µM)	0.1 µg/mL (≈ 0.245 µM)	0.1 µg/mL (≈ 0.245 µM)	0.2 µg/mL (≈ 0.49 µM)	0.05 µg/mL (≈ 0.123 µM)	0.025 µg/mL (≈ 0.0613 µM)	0.025 µg/mL (≈ 0.0613 µM)	0.05 µg/mL (≈ 0.123 µM)	0.05 µg/mL (≈ 0.123 µM)	0.1 µg/mL (≈ 0.245 µM)	0.1 µg/mL (≈ 0.245 µM)	0.05 µg/mL (≈ 0.123 µM)	MIC [8]: 0.1 µg/mL (≈ 0.245 µM); MIC (S. agalactiae 4468): 0.1 µg/mL (≈ 0.245 µM); MIC [9]: 0.2 µg/mL (≈ 0.49 µM); MIC [10]: 0.1 µg/mL (≈ 0.245 µM)
CN(C)CC1CCN(c2c(F)cc3c(=O)c(C(=O)O)cn(C4CC4)c3c2F)C1 (stereo not drawn) [Example 21, 1-Cyclopropyl-6,8-difluoro-1,4-dihydro-7-(3-dimethylaminomethyl-1-pyrrolidinyl)-4-oxo-3-quinolinecarboxylic acid]	0.1 µg/mL (≈ 0.255 µM)	3.13 µg/mL (≈ 8 µM)	0.2 µg/mL (≈ 0.511 µM)	0.2 µg/mL (≈ 0.511 µM)	0.05 µg/mL (≈ 0.128 µM)	0.2 µg/mL (≈ 0.511 µM)	0.2 µg/mL (≈ 0.511 µM)	0.2 µg/mL (≈ 0.511 µM)	0.1 µg/mL (≈ 0.255 µM)	0.2 µg/mL (≈ 0.511 µM)	0.2 µg/mL (≈ 0.511 µM)	0.2 µg/mL (≈ 0.511 µM)	0.2 µg/mL (≈ 0.511 µM)	0.05 µg/mL (≈ 0.128 µM)	0.05 µg/mL (≈ 0.128 µM)	0.05 µg/mL (≈ 0.128 µM)	0.1 µg/mL (≈ 0.255 µM)	0.2 µg/mL (≈ 0.511 µM)	0.2 µg/mL (≈ 0.511 µM)	0.05 µg/mL (≈ 0.128 µM)	MIC [8]: 0.2 µg/mL (≈ 0.511 µM); MIC (S. agalactiae 4468): 0.2 µg/mL (≈ 0.511 µM); MIC [9]: 0.2 µg/mL (≈ 0.511 µM); MIC [10]: 0.2 µg/mL (≈ 0.511 µM)
CCNCC1CCN(c2c(F)cc3c(=O)c(C(=O)O)cn(CC)c3c2F)C1 (stereo not drawn) [Ref.1, 1-Ethyl-7-(3-ethylaminomethyl-1-pyrrolidinyl)-6,8-difluoro-1,4-dihydro-4-oxo-3-quinolinecarboxylic acid, reference compound]	0.2 µg/mL (≈ 0.527 µM)	6.25 µg/mL (≈ 16.5 µM)	0.78 µg/mL (≈ 2.06 µM)	0.2 µg/mL (≈ 0.527 µM)	0.2 µg/mL (≈ 0.527 µM)	6.25 µg/mL (≈ 16.5 µM)	0.2 µg/mL (≈ 0.527 µM)	0.2 µg/mL (≈ 0.527 µM)	0.2 µg/mL (≈ 0.527 µM)	0.39 µg/mL (≈ 1.03 µM)	0.39 µg/mL (≈ 1.03 µM)	0.78 µg/mL (≈ 2.06 µM)	0.2 µg/mL (≈ 0.527 µM)	0.05 µg/mL (≈ 0.132 µM)	0.1 µg/mL (≈ 0.264 µM)	0.05 µg/mL (≈ 0.132 µM)	0.39 µg/mL (≈ 1.03 µM)	0.39 µg/mL (≈ 1.03 µM)	0.39 µg/mL (≈ 1.03 µM)	0.1 µg/mL (≈ 0.264 µM)	MIC (M. pneumoniae Mac.): 0.39 µg/mL (≈ 1.03 µM); ED50 (S. pneumoniae S-4288): 62.2 mg/kg; ED50 (S. aureus Smith): 5 mg/kg; MIC [8]: 1.56 µg/mL (≈ 4.11 µM); MIC (S. agalactiae 4468): 0.39 µg/mL (≈ 1.03 µM); MIC [9]: 0.78 µg/mL (≈ 2.06 µM); MIC [10]: 0.39 µg/mL (≈ 1.03 µM)
